Results published in patent US20040223977A1, “Fusion peptide HIV vaccines” (City of Hope, priority 2003, published 2004).
Square brackets hold non-standard residues; d marks the D form. Peptide text beside a SMILES is read from it. Cha = N[C@@H](CC1CCCCC1)C(=O)O

Key:
[1] = tested on: naïve HLA A2/K^b splenocytes; assay: Lymphocyte proliferation assay (3H-thymidine incorporation); assay type: cell-based, transgenic HLA A2/K^b mice; settings: 48 hours culture, up to 1.6 μM ODN
Experimental: A naïve transgenic A2/K^b spleen cell suspension was prepared as described for immunized splenocytes in Example 4. Following the removal of erythrocytes using red cell lysis buffer (0.15 M NH4Cl, 1 mM KHCO3, 0.1 mM Na2EDTA in distilled H2O) and subsequent washing, the concentration was adjusted to 4×10^6 cells/ml in complete in vitro stimulation (IVS) medium. One hundred microliters of splenocyte suspension was plated onto 96 well U-bottomed plate along with 100 μl of serially diluted CpG DNA in serum-free IVS medium. Concanavalin A (Sigma, St. Louis, Mo.) at a concentration of 5 μg/ml and unstimulated splenocytes were used as positive and negative controls respectively. […] Levels of TdR uptake were determined by liquid scintillation using a TriLux counter (Wallac, […]). Results were expressed as a stimulation index (SI) compared to unstimulated splenocytes.
In vitro analysis of the proliferative effect of two synthetic ODNs was conducted using naïve HLA A2/K^b splenocytes. […] Proliferative responses were determined by ^3H-thymidine incorporation using naïve transgenic A2/K^b splenocytes cultured with immunostimulatory ODN 1826 (SEQ ID NO:5; black bar) or control ODN sequence 1984 (SEQ ID NO:6; white bar) for 48 hours. […]

[2] = tested on: IV9 peptide-loaded T2 cells
[3] = tested on: T2 target cells pulsed with SEQ ID NO:10; assay: Chromium release assay after immunization with SEQ ID NO:11, T2 targets pulsed with SEQ ID NO:10; assay type: in vivo, HLA A2.1/Kb transgenic mice

5′ TCCAGGACTTCTCTCAGGTT 3′ (chemistry not given here) [ODN 1984]
proliferative response (stimulation index) [1]: little or no proliferation

5′ TCCATGACGTTCCTGACGTT 3′ [ODN 1826]
proliferative response (stimulation index) [1]: potent generalized proliferative response
amount of CpG DNA per dose capable of augmenting the CTL response ([2]; co-administered with fusion peptide (50 nmoles PADRE-IV9 elsewhere in the source), s.c., saline): ≤ 1 µg
plateau of CTL response ([2]; with 50 nmoles PADRE-IV9, E:T of 6, up to 25 μg CpG DNA): no clear plateau

CC[C@H](C)[C@H](NC(=O)[C@H](C)NC(=O)[C@H](C)NC(=O)[C@H](C)NC(=O)[C@H](CCCCN)NC(=O)[C@H](CC(C)C)NC(=O)[C@@H](NC(=O)[C@H](Cc1c[nH]c2ccccc12)NC(=O)[C@H](C)NC(=O)[C@H](C)NC(=O)[C@@H](NC(=O)[C@H](CC1CCCCC1)NC(=O)[C@H](CCCCN)NC(=O)[C@H](C)N)C(C)C)[C@@H](C)O)C(=O)N[C@@H](CC(C)C)C(=O)N[C@@H](CCCCN)C(=O)N[C@@H](CCC(=O)O)C(=O)N1CCC[C@H]1C(=O)N[C@H](C(=O)N[C@@H](Cc1c[nH]cn1)C(=O)NCC(=O)N[C@H](C(=O)O)C(C)C)C(C)C [PADRE-IV9, AKXVAAWTLKAAAILKEPVHGV] (H-AK[Cha]VAAWTLKAAAILKEPVHGV-OH)
cytotoxicity ([2]; between 10-15 nmoles of peptide, E:T ratio of 25): approximately 15%

KSSAKXVAAWTLKAAASLYNTVATL [SEQ ID NO:11, PADRE-Gag77-85 fusion peptide]
specific recognition (non-specific recognition subtracted) ([3]; 25 nmoles with 25 μg ODN 1826 s.c., E:T 4): 41%
specific recognition (non-specific recognition subtracted) ([3]; 25 nmoles with 25 μg ODN 1826 s.c., E:T 20): 62%
specific recognition (non-specific recognition subtracted) ([3]; 25 nmoles with 25 μg ODN 1826 s.c., E:T 100): 49%
specific recognition (non-specific recognition subtracted) ([3]; 50 nmoles with 25 μg ODN 1826 s.c., E:T 4): 9.3%
specific recognition (non-specific recognition subtracted) ([3]; 50 nmoles with 25 μg ODN 1826 s.c., E:T 20): 30%
specific recognition (non-specific recognition subtracted) ([3]; 50 nmoles with 25 μg ODN 1826 s.c., E:T 100): 33%
